The source made the active and inactive calls.
Experiments:
Heme oxygenase 2 = biological target: T1, Heme oxygenase 2 (Homo sapiens, UniProt P30519)
T1 sequence (P30519 whole entry): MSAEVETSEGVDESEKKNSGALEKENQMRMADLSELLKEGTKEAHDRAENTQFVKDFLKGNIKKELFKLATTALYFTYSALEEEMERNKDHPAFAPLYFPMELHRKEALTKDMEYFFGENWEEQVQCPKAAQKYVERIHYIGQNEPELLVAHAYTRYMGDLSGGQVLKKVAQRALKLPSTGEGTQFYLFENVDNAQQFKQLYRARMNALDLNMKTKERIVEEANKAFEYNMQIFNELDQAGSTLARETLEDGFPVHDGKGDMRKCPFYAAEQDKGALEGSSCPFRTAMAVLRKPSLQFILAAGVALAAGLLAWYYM

[1] = biological target: T2, Ferrochelatase, mitochondrial (Homo sapiens, UniProt P22830)
T2 sequence (P22830 whole entry): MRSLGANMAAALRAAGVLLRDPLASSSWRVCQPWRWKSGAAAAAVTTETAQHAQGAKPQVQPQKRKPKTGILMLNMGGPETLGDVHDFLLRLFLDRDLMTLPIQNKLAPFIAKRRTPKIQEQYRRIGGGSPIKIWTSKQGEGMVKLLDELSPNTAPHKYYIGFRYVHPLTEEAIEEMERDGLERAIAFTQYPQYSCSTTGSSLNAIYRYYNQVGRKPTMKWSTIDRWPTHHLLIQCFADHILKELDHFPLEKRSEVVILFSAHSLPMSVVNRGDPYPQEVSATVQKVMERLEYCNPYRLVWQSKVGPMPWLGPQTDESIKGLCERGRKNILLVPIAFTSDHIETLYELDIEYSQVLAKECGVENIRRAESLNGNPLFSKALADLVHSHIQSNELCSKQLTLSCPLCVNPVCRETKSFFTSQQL

[2] = biological target: T3, Bifunctional phosphoribosylaminoimidazole carboxylase/phosphoribosylaminoimidazole succinocarboxamide synthetase (Homo sapiens, UniProt P22234)
T3 sequence (P22234 whole entry): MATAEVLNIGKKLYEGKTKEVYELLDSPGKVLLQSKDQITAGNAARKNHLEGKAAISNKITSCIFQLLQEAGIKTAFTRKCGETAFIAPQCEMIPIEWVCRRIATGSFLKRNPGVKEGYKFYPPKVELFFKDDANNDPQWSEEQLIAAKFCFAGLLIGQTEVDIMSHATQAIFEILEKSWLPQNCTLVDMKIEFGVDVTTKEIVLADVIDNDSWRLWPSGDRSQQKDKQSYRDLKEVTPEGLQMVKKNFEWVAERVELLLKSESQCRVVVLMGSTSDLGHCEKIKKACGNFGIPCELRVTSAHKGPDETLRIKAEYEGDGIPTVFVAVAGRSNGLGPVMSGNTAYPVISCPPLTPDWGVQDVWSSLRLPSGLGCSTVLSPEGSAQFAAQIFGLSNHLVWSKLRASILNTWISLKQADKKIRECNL

[3] = biological target: T4, Serine/threonine-protein kinase ULK1 (Homo sapiens, UniProt O75385)
T4 sequence (O75385 whole entry): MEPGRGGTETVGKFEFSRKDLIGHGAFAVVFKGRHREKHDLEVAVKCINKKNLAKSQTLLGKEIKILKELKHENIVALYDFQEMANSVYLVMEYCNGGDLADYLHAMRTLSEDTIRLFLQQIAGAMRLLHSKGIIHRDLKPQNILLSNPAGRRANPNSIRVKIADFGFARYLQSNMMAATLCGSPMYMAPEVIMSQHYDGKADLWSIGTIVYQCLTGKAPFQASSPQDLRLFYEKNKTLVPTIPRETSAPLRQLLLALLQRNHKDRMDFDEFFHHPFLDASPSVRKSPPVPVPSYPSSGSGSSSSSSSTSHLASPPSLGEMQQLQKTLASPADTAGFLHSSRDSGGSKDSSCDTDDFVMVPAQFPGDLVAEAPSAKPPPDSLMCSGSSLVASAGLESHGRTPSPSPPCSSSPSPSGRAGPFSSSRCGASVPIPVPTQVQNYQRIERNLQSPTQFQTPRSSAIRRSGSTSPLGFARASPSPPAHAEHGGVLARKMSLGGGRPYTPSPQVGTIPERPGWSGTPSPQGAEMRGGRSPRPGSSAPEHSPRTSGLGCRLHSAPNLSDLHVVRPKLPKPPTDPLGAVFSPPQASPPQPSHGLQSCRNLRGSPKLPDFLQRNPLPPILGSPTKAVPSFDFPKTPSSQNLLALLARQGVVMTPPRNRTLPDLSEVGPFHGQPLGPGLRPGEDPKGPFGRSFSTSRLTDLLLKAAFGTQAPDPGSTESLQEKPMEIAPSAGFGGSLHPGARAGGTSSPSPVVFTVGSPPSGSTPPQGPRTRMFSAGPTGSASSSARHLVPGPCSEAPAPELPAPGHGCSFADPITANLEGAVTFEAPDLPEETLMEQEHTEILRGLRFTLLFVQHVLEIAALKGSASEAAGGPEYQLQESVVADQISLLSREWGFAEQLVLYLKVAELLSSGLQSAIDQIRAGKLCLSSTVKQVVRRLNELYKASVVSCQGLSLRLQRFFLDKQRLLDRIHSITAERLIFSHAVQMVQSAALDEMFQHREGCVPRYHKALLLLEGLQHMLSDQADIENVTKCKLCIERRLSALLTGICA

[4] = biological target: T5, Serine/threonine-protein kinase STK11 (Homo sapiens, UniProt Q15831)
T5 sequence (Q15831 whole entry): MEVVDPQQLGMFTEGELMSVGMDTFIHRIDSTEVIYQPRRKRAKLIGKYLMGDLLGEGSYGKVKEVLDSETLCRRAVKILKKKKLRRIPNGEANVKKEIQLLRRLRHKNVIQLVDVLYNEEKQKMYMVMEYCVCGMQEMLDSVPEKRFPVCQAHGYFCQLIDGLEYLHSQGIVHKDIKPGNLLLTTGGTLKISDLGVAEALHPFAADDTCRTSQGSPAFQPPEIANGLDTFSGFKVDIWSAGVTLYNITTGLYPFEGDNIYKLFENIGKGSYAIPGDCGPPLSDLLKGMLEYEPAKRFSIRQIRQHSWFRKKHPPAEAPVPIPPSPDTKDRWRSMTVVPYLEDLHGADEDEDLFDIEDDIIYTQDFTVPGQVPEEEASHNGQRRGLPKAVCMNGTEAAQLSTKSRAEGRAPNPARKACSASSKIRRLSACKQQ

[5] = biological target: Tyrosine-protein kinase ABL2 (Homo sapiens, UniProt P42684)
[6] = biological target: Chromodomain-helicase-DNA-binding protein 4 (Homo sapiens, UniProt Q14839)
Further: in the data inactive means no Kd found up to 30 µM.

Chromodomain-helicase-DNA-binding protein 4, sequence (Q14839 whole entry): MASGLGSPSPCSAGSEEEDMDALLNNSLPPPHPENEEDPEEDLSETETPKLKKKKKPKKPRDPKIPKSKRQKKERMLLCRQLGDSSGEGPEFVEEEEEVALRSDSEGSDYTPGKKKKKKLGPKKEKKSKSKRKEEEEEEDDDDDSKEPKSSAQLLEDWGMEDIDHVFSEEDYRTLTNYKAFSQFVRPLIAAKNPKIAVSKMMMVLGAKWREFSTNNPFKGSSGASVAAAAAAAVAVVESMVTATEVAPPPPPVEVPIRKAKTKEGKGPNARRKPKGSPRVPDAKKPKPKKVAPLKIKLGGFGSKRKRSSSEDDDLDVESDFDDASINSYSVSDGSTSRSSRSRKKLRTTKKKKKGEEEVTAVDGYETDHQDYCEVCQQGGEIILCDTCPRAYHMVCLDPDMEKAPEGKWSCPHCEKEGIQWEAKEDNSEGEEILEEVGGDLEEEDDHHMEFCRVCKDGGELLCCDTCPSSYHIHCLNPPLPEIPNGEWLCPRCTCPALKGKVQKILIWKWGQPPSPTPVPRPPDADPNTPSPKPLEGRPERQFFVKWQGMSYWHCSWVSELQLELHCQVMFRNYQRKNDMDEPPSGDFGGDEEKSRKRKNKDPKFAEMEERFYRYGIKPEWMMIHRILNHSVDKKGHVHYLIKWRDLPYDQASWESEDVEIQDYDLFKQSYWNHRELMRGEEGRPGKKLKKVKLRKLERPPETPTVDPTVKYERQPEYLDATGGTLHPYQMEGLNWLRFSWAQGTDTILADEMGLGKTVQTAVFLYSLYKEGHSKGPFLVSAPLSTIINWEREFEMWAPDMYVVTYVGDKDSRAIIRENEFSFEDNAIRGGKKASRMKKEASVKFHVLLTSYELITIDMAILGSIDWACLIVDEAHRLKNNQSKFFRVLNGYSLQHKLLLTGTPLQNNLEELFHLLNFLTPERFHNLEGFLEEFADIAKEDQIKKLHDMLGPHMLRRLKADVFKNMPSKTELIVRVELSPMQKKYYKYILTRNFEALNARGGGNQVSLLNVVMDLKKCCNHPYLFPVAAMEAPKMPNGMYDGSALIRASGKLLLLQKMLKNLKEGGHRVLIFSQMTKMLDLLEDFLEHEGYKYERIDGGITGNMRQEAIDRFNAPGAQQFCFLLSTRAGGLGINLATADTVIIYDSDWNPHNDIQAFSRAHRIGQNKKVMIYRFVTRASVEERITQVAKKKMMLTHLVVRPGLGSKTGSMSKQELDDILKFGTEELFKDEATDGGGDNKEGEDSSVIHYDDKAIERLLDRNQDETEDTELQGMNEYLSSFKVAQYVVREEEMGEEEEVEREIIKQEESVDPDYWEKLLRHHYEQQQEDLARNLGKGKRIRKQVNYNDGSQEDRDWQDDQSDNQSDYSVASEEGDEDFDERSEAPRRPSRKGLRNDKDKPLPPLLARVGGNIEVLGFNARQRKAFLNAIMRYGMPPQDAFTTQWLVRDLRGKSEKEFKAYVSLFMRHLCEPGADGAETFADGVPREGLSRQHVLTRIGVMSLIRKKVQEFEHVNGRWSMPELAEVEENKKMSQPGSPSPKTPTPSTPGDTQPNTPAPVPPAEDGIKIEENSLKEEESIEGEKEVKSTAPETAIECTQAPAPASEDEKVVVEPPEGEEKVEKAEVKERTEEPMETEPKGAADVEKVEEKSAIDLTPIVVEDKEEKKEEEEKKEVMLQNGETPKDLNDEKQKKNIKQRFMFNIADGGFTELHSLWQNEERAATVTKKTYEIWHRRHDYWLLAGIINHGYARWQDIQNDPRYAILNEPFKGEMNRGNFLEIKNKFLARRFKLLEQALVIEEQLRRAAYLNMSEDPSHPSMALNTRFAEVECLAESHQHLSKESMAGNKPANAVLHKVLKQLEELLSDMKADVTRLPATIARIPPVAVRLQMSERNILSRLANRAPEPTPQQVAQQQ
Tyrosine-protein kinase ABL2, sequence (P42684 whole entry): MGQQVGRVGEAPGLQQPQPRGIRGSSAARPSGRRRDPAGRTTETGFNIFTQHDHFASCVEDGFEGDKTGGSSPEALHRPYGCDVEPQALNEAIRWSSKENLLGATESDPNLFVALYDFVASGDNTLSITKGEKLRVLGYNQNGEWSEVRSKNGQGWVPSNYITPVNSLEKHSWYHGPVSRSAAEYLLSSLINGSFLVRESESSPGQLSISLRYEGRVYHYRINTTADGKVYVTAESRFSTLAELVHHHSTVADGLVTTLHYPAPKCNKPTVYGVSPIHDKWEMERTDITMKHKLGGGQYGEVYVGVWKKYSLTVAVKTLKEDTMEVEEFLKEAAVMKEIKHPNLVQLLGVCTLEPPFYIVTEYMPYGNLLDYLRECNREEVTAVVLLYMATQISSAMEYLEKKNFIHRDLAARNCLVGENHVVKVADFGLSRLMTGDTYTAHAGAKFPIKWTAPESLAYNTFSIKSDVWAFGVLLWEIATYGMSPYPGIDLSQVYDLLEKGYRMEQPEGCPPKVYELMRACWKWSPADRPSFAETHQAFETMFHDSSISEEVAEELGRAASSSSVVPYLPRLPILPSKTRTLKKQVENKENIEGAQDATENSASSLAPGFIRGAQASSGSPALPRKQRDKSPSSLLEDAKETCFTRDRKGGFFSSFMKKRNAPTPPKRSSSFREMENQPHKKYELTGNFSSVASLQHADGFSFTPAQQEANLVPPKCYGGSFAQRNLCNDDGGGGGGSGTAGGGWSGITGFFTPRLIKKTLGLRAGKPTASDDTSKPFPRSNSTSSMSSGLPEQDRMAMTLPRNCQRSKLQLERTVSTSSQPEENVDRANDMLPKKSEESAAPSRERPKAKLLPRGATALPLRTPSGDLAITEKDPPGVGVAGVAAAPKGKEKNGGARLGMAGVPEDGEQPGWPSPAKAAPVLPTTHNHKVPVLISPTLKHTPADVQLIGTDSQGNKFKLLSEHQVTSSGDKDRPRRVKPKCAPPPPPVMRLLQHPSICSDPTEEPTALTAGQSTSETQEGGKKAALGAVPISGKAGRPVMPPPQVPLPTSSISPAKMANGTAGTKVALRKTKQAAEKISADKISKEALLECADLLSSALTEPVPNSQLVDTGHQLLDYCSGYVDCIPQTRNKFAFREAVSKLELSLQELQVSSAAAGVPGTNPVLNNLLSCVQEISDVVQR

Row | SMILES | Kd (Heme oxygenase 2) | Kd [1] | Kd [2] | Kd [6] | Kd [3] | Kd [4] | Kd [5]
1 | CCN(CCCOc1ccc2c(Nc3cc(CC(=O)Nc4cccc(F)c4)n[nH]3)ncnc2c1)CCOP(=O)(O)O [BARASERTIB] | > 30 µM (inactive) | > 30 µM (inactive) | > 30 µM (inactive) | > 30 µM (inactive) | > 30 µM (inactive) | > 30 µM (inactive) | > 30 µM (inactive)
2 | O=C(NC[C@H](O)CO)c1ccncc1Nc1ccc(I)cc1F [PIMASERTIB] | > 30 µM (inactive) | > 30 µM (inactive) | > 30 µM (inactive) | > 30 µM (inactive) | > 30 µM (inactive) | > 30 µM (inactive) | > 30 µM (inactive)
3 | COc1cc2c(Oc3ccc4[nH]c(C)cc4c3F)ncnc2cc1OCCCN1CCCC1 [CEDIRANIB] | > 30 µM (inactive) | > 30 µM (inactive) | > 30 µM (inactive) | > 30 µM (inactive) |  |  | 
4 | COc1ccc(-c2ccc3ncc4c(c3c2)n(-c2ccc(N3CCNCC3)c(C(F)(F)F)c2)c(=O)n4C)cn1 [BGT-226 FREE BASE] | > 30 µM (inactive) | 3.11 µM (active) | > 30 µM (inactive) | > 30 µM (inactive) | > 30 µM (inactive) |  | > 30 µM (inactive)
5 | COc1cc2c(N3CCN(C(=O)Nc4ccc(OC(C)C)cc4)CC3)ncnc2cc1OCCCN1CCCCC1 [TANDUTINIB] |  | > 30 µM (inactive) | > 30 µM (inactive) | > 30 µM (inactive) |  |  | 
6 | N#CCNC(=O)c1ccc(-c2ccnc(Nc3ccc(N4CCOCC4)cc3)n2)cc1 [MOMELOTINIB] | > 30 µM (inactive) | > 30 µM (inactive) | > 30 µM (inactive) |  | > 30 µM (inactive) | > 30 µM (inactive) | > 30 µM (inactive)
7 | COc1cc(F)c(F)c(Nc2ccc(I)cc2F)c1NS(=O)(=O)C1(C[C@H](O)CO)CC1 [REFAMETINIB] | > 30 µM (inactive) | > 30 µM (inactive) | > 30 µM (inactive) |  | > 30 µM (inactive) | > 30 µM (inactive) | > 30 µM (inactive)
8 | CC1(COc2ccc3c(c2)ncn3-c2ccc3cccc(N4CCC(N)CC4)c3n2)COC1 [CRENOLANIB] | > 30 µM (inactive) | 7.35 µM (active) | > 30 µM (inactive) |  | 0.839 µM (active) | > 30 µM (inactive) | > 30 µM (inactive)
9 | CC(C)CC(=O)Nc1[nH]nc2c1CN(C(=O)C1CCN(C)CC1)C2(C)C [PHA-793887] |  | > 30 µM (inactive) | > 30 µM (inactive) | > 30 µM (inactive) | 0.838 µM |  | > 30 µM (inactive)
10 | Cc1c(NC(=O)OC[C@@H]2COCCN2)cn2ncnc(Nc3ccc4c(cnn4Cc4cccc(F)c4)c3)c12 [AC-480] | > 30 µM (inactive) | > 30 µM (inactive) | > 30 µM (inactive) | > 30 µM (inactive) | > 30 µM (inactive) |  | > 30 µM (inactive)
11 | CC1(C)CNc2cc(NC(=O)c3cccnc3NCc3ccncc3)ccc21 [MOTESANIB] | > 30 µM (inactive) | > 30 µM (inactive) | > 30 µM (inactive) | > 30 µM (inactive) |  |  | 
12 | Cn1cnc2c(F)c(Nc3ccc(Br)cc3Cl)c(C(=O)NOCCO)cc21 [SELUMETINIB] | > 30 µM (inactive) | > 30 µM (inactive) | > 30 µM (inactive) | > 30 µM (inactive) |  |  | 
13 | O=S(=O)(c1cccc2cnccc12)N1CCCNCC1 [FASUDIL] | > 30 µM (inactive) | > 30 µM (inactive) | > 30 µM (inactive) | > 30 µM (inactive) |  | > 30 µM (inactive) | > 30 µM (inactive)
14 | NC[C@@](O)(c1ccc(Cl)cc1)c1ccc(-c2cn[nH]c2)cc1 [AT-13148] | > 30 µM (inactive) | > 30 µM (inactive) | > 30 µM (inactive) | > 30 µM (inactive) |  | > 30 µM (inactive) | > 30 µM (inactive)
15 | C=CCN(/C=C1/C(=O)O[C@H](COC)[C@@]2(C)C1=C(O)C(=O)C1=C2[C@H](OC(C)=O)C[C@]2(C)C(=O)CC[C@@H]12)CC=C [SONOLISIB] | > 30 µM (inactive) | > 30 µM (inactive) | > 30 µM (inactive) |  | > 30 µM (inactive) | > 30 µM (inactive) | > 30 µM (inactive)
16 | Cc1cc(-c2cc(OC(=O)c3ccccc3)ccc2Cl)cc2nnc(Nc3ccc(OCCN4CCCC4)cc3)nc12 [TG100-801] | > 30 µM (inactive) | > 30 µM (inactive) | > 30 µM (inactive) |  | > 30 µM (inactive) | > 30 µM (inactive) | 1.03 µM (active)
17 | CN(C)C/C=C/C(=O)Nc1cc2c(Nc3ccc(F)c(Cl)c3)ncnc2cc1O[C@H]1CCOC1 [AFATINIB] | > 30 µM (inactive) | > 30 µM (inactive) | > 30 µM (inactive) | > 30 µM (inactive) |  |  | 

The next lines start with results.

Row | Kd (Heme oxygenase 2) | Kd [1] | Kd [2] | Kd [6] | SMILES | Kd [3] | Kd [4] | Kd [5]
18 | > 30 µM (inactive) | > 30 µM (inactive) | > 30 µM (inactive) | > 30 µM (inactive) | CC(C)(O)CC(=O)NCCn1ccc2ncnc(Nc3ccc(Oc4cccc(C(F)(F)F)c4)c(Cl)c3)c21 [TAK-285] |  | > 30 µM (inactive) | > 30 µM (inactive)
19 | > 30 µM (inactive) | > 30 µM (inactive) | > 30 µM (inactive) | > 30 µM (inactive) | C[C@@]1(C(=O)Nc2ccc(F)nc2)CCCN1c1nc(Nc2cc(C3CC3)n[nH]2)c2cccn2n1 [BMS-754807] |  |  | 
20 | > 30 µM (inactive) | > 30 µM (inactive) | > 30 µM (inactive) | > 30 µM (inactive) | CCOc1ccn(-c2ccc(F)cc2)c(=O)c1C(=O)Nc1ccc(Oc2ccnc(N)c2Cl)c(F)c1 [BMS-777607] | > 30 µM (inactive) | > 30 µM (inactive) | 
21 | > 30 µM (inactive) | > 30 µM (inactive) | > 30 µM (inactive) |  | NC(=O)c1ccc(N(C(N)=O)c2c(F)cccc2F)nc1-c1ccc(F)cc1F [VX-702] | > 30 µM (inactive) | > 30 µM (inactive) | > 30 µM (inactive)

Source: ChEMBL document CHEMBL3991601, “The target landscape of clinical kinase drugs” (Science, 2017)
